Results reported in BindingDB's records for patent US20240132480 (Cornell University, 2024).

Biological target: T1, Dihydrolipoyl dehydrogenase (Mycobacterium tuberculosis (strain ATCC 25618 / H37Rv), UniProt P9WHH9)
T1 sequence (P9WHH9 whole entry): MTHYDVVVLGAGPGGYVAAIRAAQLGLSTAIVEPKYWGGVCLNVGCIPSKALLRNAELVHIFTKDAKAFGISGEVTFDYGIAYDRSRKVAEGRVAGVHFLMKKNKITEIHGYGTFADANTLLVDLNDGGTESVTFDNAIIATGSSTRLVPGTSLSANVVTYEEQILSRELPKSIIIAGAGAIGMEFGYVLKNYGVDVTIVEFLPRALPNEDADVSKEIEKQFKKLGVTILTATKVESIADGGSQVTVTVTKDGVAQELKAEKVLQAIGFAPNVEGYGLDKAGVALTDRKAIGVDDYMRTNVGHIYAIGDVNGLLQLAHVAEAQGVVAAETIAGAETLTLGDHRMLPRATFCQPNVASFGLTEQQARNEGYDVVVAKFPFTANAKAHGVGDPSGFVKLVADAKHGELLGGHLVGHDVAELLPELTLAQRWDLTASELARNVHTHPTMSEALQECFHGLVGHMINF
Assay: LPD Assay with 30 min preincubation

Structure (SMILES): CC#CCNC(=O)CN(C)S(=O)(=O)c1cc(C)cc2cc(C#N)[nH]c12 [US20240132480, Example 210]
- IC50: 38 nM
